Assay results as given in publication PMC8153946, “Substrate Selectivity of Coumarin Derivatives by Human CYP1 Enzymes: In Vitro Enzyme Kinetics and In Silico Modeling” (ACS Omega, 2021).

Assays:
Assay type in all cases: biochemical
[1] = biological target: T1, human CYP1B1 (Homo sapiens, UniProt Q16678); assay: Michaelis–Menten kinetics of oxidation to fluorescent 7-hydroxy metabolite by recombinant CYP1B1; design: key to screening activity class: NA, no activity was observed.; LA, low screening activity at the 20 μM substrate and 25 nM CYP concentration; conditions: for screening activity class: CYP1B1, 20 μM substrate and 25 nM CYP
T1 construct: purchased BD Biosciences Discovery Labware (Woburn, MA, USA); host or cells: baculovirus-insect cells
T1 sequence (Q16678 1-543): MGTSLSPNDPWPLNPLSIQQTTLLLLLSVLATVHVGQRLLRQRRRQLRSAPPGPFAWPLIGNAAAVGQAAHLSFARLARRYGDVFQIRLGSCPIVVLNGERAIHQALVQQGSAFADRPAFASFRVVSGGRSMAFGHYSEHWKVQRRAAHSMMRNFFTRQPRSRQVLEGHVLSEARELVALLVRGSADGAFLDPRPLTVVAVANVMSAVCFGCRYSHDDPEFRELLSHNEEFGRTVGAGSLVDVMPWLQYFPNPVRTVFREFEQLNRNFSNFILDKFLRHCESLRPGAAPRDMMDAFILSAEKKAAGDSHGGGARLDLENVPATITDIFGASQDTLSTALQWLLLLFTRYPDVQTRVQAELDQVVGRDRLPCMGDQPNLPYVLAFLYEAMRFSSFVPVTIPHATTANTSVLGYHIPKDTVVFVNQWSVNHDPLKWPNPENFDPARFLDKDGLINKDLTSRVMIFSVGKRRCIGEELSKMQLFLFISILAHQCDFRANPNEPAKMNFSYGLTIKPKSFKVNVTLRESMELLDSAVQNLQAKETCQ
Description: (§1) Baculovirus-insect cell-expressed human CYP1A1, CYP1A2, CYP1B1, CYP2A6, CYP2B6, CYP2C8, CYP2C9, CYP2C19, CYP2D6, CYP2E1, CYP3A4, CYP3A5, and CYP3A7 were purchased from BD Biosciences Discovery Labware (Woburn, MA, USA) and used according to the manufacturer’s instructions.
(§2) The kinetic assays were carried out in 100 μL volume containing 100 mM Tris-HCl buffer pH 7.4, 0–40 μM coumarin derivative or 0–10 μM 7-ethoxyresorufin, 1–25 nM recombinant CYP or 0–0.1 g/L microsomal protein, and 20% NADPH regenerating system. Incubations took place at 37 °C in 96-multiwell plates; the fluorescence was measured with a Victor[2] plate reader (PerkinElmer Life Sciences, Turku, Finland). The detailed conditions are described in the figures and tables. The reaction was started by adding NADPH, and fluorescence was measured at 2 min intervals for 40 min using excitation at 405 nm and emission at 460 nm for oxidation of coumarin derivatives[18] and excitation at 570 nm and emission at 615 nm for ethoxyresorufin or pentoxyresorufin 7-O-dealkylations. Incubations without the substrate, enzyme, or NADPH were used as blank reactions. Resorufin was used as a standard, and 3-(4-fluorophenyl)-7-hydroxycoumarin was used as the surrogate standards to calculate the amount of product formed. The linear phase of the reactions was used for calculations.
(§3) Enzyme kinetic parameters were analyzed using the nonlinear Michaelis–Menten equation v = Vmax × S/(Km + S), in which v is the rate for 7-hydroxylation of a coumarin derivative, S is its concentration, and Vmax value is the limiting rate of the reaction of 7-hydroxylation, which reached a half-maximal rate at a concentration of Km for the substrate.

[2] = test system: human CYP1 enzymes (CYP1A1, CYP1A2, CYP1B1); assay: Oxidation efficiency compared across all CYP1 forms (Table 1); conditions: based on Table 1
Description: as §1, §2, §3

[3] = test system: 13 recombinant human CYP enzymes; assay: Oxidation rates by 13 recombinant human CYP enzymes at fixed substrate concentration (Figure 2); conditions: 25 nM CYP; for CYP1 form oxidizing the substrate fastest: 10 μM coumarin derivative or 1 μM 7-ethoxy/7-pentoxyresorufin; for fluorescence change and rate of the oxidation / oxidation rate relative to oxidation of 7-pentoxyresorufin: fixed substrate concentration
Description: as §1, §2
To find out which CYP forms oxidize the 11 novel coumarin derivatives, we determined their oxidation rates to the corresponding 7-hydroxycoumarin metabolites by 13 recombinant human CYP enzymes at a fixed 10 μM substrate concentration (Figure 2). All except 21, 22, and 23 were oxidized faster by one or several CYP1 forms than by the other CYP forms. […] Oxidation rates of the classical CYP substrates 7-ethoxycoumarin, 7-ethoxyresorufin, and 7-pentoxyresorufin were also determined. […] Oxidation of 7-ethoxycoumarin and 7-ethoxyresorufin was 35 and 60 times faster, respectively, than oxidation of 7-pentoxyresorufin. 7-Ethoxyresorufin was oxidized by CYP1A2 and CYP1B1 at 30–40% of the rate of CYP1A1.
Figure 2 Oxidation of the coumarin derivatives and 7-ethoxy- and 7-pentoxyresorufin by 13 human CYP forms. The formation of fluorescent metabolites was determined in incubations containing a 25 nM CYP, a 20% NADPH regenerating system, and a 10 μM coumarin derivative or 1 μM 7-ethoxy/7-pentoxyresorufin in 100 mM Tris-HCl pH 7.4 in the kinetic experimental setup. […] Note the variation in Y-axis scales between subpanels.

[4] = biological target: T2, human CYP1A1 (Homo sapiens, UniProt P04798); assay: Michaelis–Menten kinetics of oxidation to fluorescent 7-hydroxy metabolite by recombinant CYP1A1; design: key to screening activity class: NA, no activity was observed.; LA, low screening activity at the 20 μM substrate and 25 nM CYP concentration; conditions: for screening activity class: CYP1A1, 20 μM substrate and 25 nM CYP; for Vmax: recombinant CYP1A1, surrogate standard, 95% confidence interval in brackets
T2 construct: purchased BD Biosciences Discovery Labware (Woburn, MA, USA); host or cells: baculovirus-insect cells
T2 sequence (P04798 1-512): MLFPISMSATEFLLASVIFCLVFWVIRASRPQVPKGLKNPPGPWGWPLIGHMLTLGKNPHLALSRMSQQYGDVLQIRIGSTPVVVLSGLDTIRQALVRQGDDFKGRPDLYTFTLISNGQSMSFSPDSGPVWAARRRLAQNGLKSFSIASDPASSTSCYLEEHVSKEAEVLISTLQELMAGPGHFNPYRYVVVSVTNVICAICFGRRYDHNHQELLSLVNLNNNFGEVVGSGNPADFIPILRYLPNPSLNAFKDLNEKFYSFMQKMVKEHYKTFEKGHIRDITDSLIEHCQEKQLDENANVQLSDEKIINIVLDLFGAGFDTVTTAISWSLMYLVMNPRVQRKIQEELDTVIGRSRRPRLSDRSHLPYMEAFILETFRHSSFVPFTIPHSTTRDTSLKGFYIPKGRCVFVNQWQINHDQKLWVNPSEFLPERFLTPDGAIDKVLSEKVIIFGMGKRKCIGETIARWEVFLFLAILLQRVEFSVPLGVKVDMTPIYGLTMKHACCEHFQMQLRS
Description: as §1, §2, §3

[5] = biological target: T3, CYP1A2 (Homo sapiens, UniProt P05177); assay: Michaelis–Menten kinetics of oxidation to fluorescent 7-hydroxy metabolite by recombinant CYP1A2; design: key to screening activity class: NA, no activity was observed.; LA, low screening activity at the 20 μM substrate and 25 nM CYP concentration
T3 construct: purchased BD Biosciences Discovery Labware (Woburn, MA, USA); host or cells: baculovirus-insect cells
T3 sequence (P05177 1-516): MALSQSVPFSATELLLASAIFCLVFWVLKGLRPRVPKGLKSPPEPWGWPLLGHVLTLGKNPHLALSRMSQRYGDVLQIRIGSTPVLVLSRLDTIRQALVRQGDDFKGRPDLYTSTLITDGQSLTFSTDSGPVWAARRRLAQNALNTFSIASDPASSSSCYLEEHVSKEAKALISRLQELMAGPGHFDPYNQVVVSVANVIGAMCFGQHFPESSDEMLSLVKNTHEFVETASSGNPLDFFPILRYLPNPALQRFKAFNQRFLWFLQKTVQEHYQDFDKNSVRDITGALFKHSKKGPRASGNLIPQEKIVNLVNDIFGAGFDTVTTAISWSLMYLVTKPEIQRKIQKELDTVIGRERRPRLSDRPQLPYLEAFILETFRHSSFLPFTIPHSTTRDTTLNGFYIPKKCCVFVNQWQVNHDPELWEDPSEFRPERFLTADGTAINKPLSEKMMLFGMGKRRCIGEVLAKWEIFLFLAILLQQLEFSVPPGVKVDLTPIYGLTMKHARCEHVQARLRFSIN
Description: as §1, §2, §3

Row | SMILES | substrate efficiency compared among CYP1 enzymes [2] | CYP1 form oxidizing the substrate fastest [3] | screening activity class [1] | other results
1 | O=c1oc2ccc(O)cc2cc1-c1cccc(O)c1 [Compound 15, 3-(3-hydroxyphenyl)-6-hydroxycoumarin] | efficient substrate for CYP1A2 compared with CYP1A1 and CYP1B1 | oxidized faster by CYP1A2 than CYP1A1 or CYP1B1 |  | Vmax ([1]; recombinant CYP1B1, surrogate standard, 95% confidence interval in brackets): 0.29 mol/(min·mol CYP)
2 | COc1ccc2cc(-c3ccc(OC(F)(F)F)cc3)c(=O)oc2c1 [Compound 18, 3-(4-trifluoromethoxyphenyl)-7-methoxycoumarin] | oxidized with equal efficiency by CYP1A1 and CYP1A2 and weakly by CYP1B1 | oxidized faster by CYP1A2 than CYP1A1 or CYP1B1 | LA | 
3 | COc1ccc(-c2cc3cc(OC(C)=O)ccc3oc2=O)cc1 [Compound 17, 3-(4-methoxyphenyl)-6-acetoxycoumarin] |  | oxidized faster by CYP1A2 than CYP1A1 or CYP1B1 | LA | 
4 | CC(=O)Oc1cccc(-c2cc3cc(Cl)ccc3oc2=O)c1 [Compound 22, 3-(3-acetoxyphenyl)-6-chlorocoumarin] |  | oxidized faster by CYP1B1 than by CYP1A1 or CYP1A2 |  | screening activity class [4]: LA; screening activity class ([5]; CYP1A2, 20 μM substrate and 25 nM CYP): LA; fluorescence change and rate of the oxidation [3]: almost equally low
5 | Cc1ccc2oc(=O)c(-c3ccc(F)cc3)cc2c1 [Compound 21, 3-(4-fluorophenyl)-6-methylcoumarin] |  | oxidized faster by CYP1A2 than CYP1A1 or CYP1B1 | LA | screening activity class [4]: LA; fluorescence change and rate of the oxidation [3]: almost equally low
6 | COc1ccc2oc(=O)c(-c3ccc(OC(F)(F)F)cc3)cc2c1 [Compound 16, 3-(4-trifluoromethoxyphenyl)-6-methoxycoumarin] | oxidized with equal efficiency by CYP1A1 and CYP1A2 and weakly by CYP1B1 | oxidized faster by CYP1A1 than CYP1A2 or CYP1B1 | LA | 
7 | CCOc1ccc2nc3ccc(=O)cc-3oc2c1 [Compound 25, 7-ethoxyresorufin, reference compound] | efficient substrates for CYP1A1 compared with CYP1A2 and CYP1B1 | oxidized faster by CYP1A1 than the other CYP1 enzymes |  | oxidation rate by CYP1A2 and CYP1B1 relative to the rate of CYP1A1 ([3]; 1 μM substrate): 30–40%; oxidation rate relative to oxidation of 7-pentoxyresorufin [3]: 60 times
8 | CC(=O)Oc1ccc(-c2cc3cc(Cl)ccc3oc2=O)cc1 [Compound 20, 3-(4-acetoxyphenyl)-6-chlorocoumarin] | efficient substrate for CYP1B1 compared with CYP1A1 and 1A2 | oxidized faster by CYP1A1 than CYP1A2 or CYP1B1 |  | Vmax [4]: 6.5 mol/(min·mol CYP)
9 | COc1ccc2oc(=O)c(-c3ccc(O)c(F)c3)cc2c1 [Compound 13, 3-(3-fluoro-4-hydroxyphenyl)-6-methoxycoumarin] | efficient substrates for CYP1A1 compared with CYP1A2 and CYP1B1 | oxidized faster by CYP1A1 than CYP1A2 or CYP1B1 |  | Vmax [4]: 32 mol/(min·mol CYP)
10 | O=c1oc2ccccc2cc1-c1cccc(O)c1 [Compound 23, 3-(3-hydroxyphenyl)coumarin] |  | oxidized faster by CYP1A2 than CYP1A1 or CYP1B1 | LA | screening activity class [4]: LA; fluorescence change and rate of the oxidation [3]: lowest
11 | COc1cccc(-c2cc3cc(OC)ccc3oc2=O)c1 [Compound 19, 3-(3-methoxyphenyl)-6-methoxycoumarin] | oxidized with equal efficiency by all CYP1 enzymes | oxidized faster by CYP1A1 than CYP1A2 or CYP1B1 |  | 
12 | CCOc1ccc2ccc(=O)oc2c1 [Compound 24, 7-ethoxycoumarin, reference compound] | efficient substrates for CYP1A1 compared with CYP1A2 and CYP1B1 | oxidized faster by CYP1A1 than the other CYP1 enzymes |  | Km ([5]; human, recombinant CYP1A2 (baculovirus-insect cell-expressed), recombinant CYP1A2, 100 mM Tris-HCl pH 7.4, 37 °C, 95% confidence interval in brackets): 7.7 µM; Vmax ([5]; recombinant CYP1A2, surrogate standard, 95% confidence interval in brackets): 2.0 (1.4–2.6) mol/(min·mol CYP); oxidation rate relative to oxidation of 7-pentoxyresorufin [3]: 35 times
